Source: PubChem BioAssay AID248 (DTP/NCI, 2004)
Where “and” joins values, the source holds several entries; their conditions need not be identical. Identical values can stand only once. Inconclusive results and toxic doses are left out. No stated cut-off is given here; in the data, active means T/C of 150% or more; inactive means T/C below 125%.

Test system: L1210 leukemia ip in BDF1 mice, survival T/C
Assay: NCI In Vivo Anticancer Drug Screen. Data for tumor model L1210 Leukemia (intraperitoneal) in B6D2F1 (BDF1) mice
Conditions: endpoint: mean survival time, higher = longer survival
Procedure, shortened: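 In this screen, tumor-bearing mice given compound are compared to those given vehicle, and their survival values are reported as a treated-to-control quotient.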

[1] = dose: 100.0 mg/kg/injection, schedule: Q04DX003 (ip), vehicle: Klucel (hydroxypropylcellulose) (HPC)
[2] = dose: 50.0 mg/kg/injection, schedule: Q01DX009 (ip), vehicle: saline with Tween-80
[3] = dose: 100.0 mg/kg/injection, schedule: Q01DX009 (ip), vehicle: saline with Tween-80
[4] = dose: 100.0 mg/kg/injection, schedule: Q04DX002 (ip), vehicle: saline with Tween-80
[5] = dose: 200.0 mg/kg/injection, schedule: Q04DX002 (ip), vehicle: saline with Tween-80
[6] = dose: 400.0 mg/kg/injection, schedule: Q04DX002 (ip), vehicle: saline with Tween-80
[7] = dose: 100.0 mg/kg/injection, schedule: Q04DX002 (ip), vehicle: Klucel (hydroxypropylcellulose) (HPC)
[8] = dose: 200.0 mg/kg/injection, schedule: Q04DX002 (ip), vehicle: Klucel (hydroxypropylcellulose) (HPC)
[9] = dose: 400.0 mg/kg/injection, schedule: Q04DX002 (ip), vehicle: Klucel (hydroxypropylcellulose) (HPC)
[10] = dose: 200.0 mg/kg/injection, schedule: Q04DX003 (ip), vehicle: Klucel (hydroxypropylcellulose) (HPC)
[11] = dose: 400.0 mg/kg/injection, schedule: Q04DX003 (ip), vehicle: Klucel (hydroxypropylcellulose) (HPC)
[12] = dose: 200.0 mg/kg/injection, schedule: Q01DX001 (ip), vehicle: other
[13] = dose: 100.0 mg/kg/injection, schedule: Q01DX001 (ip), vehicle: other
[14] = dose: 100.0 mg/kg/injection, schedule: Q01DX009 (ip), vehicle: Klucel (hydroxypropylcellulose) (HPC)
[15] = dose: 200.0 mg/kg/injection, schedule: Q01DX009 (ip), vehicle: Klucel (hydroxypropylcellulose) (HPC)
[16] = dose: 400.0 mg/kg/injection, schedule: Q01DX009 (ip), vehicle: Klucel (hydroxypropylcellulose) (HPC)

Measured: T/C

C#CCOP(=O)(C#CC)OCC#C
inactive: dose: 25.0 mg/kg/injection, schedule: Q04DX003 (ip), vehicle: Klucel (hydroxypropylcellulose) (HPC) 93 % of control | dose: 50.0 mg/kg/injection, schedule: Q04DX003 (ip), vehicle: Klucel (hydroxypropylcellulose) (HPC) 97 % of control | [1] 98 % of control | dose: 100.0 mg/kg/injection, schedule: Q04DX003 (ip), vehicle: saline with Tween-80 95 % of control

CN(C)/N=N/c1nc[nH]c1C(N)=O.[Cl][Cu][Cl]
inactive: dose: 9.5 mg/kg/injection, schedule: Q01DX001 (ip), vehicle: saline 103 % of control | dose: 19.0 mg/kg/injection, schedule: Q01DX001 (ip), vehicle: saline 95 % of control | dose: 38.0 mg/kg/injection, schedule: Q01DX001 (ip), vehicle: saline 101 % of control

OCC1N=C(c2ccccc2)OC1c1ccccc1 (configuration not stated)
inactive: [2] 94 % of control | [3] 102 % of control | dose: 200.0 mg/kg/injection, schedule: Q01DX009 (ip), vehicle: saline with Tween-80 96 % of control

CCOC(=O)C(CCc1ccccn1)C(C)=O (configuration not stated)
inactive: dose: 100.0 mg/kg/injection, schedule: Q01DX009 (ip), vehicle: saline 97 % of control | dose: 200.0 mg/kg/injection, schedule: Q01DX009 (ip), vehicle: saline 107 % of control | dose: 400.0 mg/kg/injection, schedule: Q01DX009 (ip), vehicle: saline 102 % of control

O=C(O)c1c(Br)c(Br)c(Br)c(Br)c1C(=O)Nc1cccc2ccccc12
inactive: [4] 97 % of control | [5] 97 % of control | [6] 94 % of control

CCOC(=O)CC(C)=O.CCOC(=O)CC(C)=O.CCOC(=O)CC(C)=O.[Al]
inactive: dose: 12.5 mg/kg/injection, schedule: Q01DX005 (ip), vehicle: Klucel (hydroxypropylcellulose) (HPC) 96 % of control | dose: 12.5 mg/kg/injection, schedule: Q01DX009 (ip), vehicle: Klucel (hydroxypropylcellulose) (HPC) 104 % of control | dose: 25.0 mg/kg/injection, schedule: Q01DX005 (ip), vehicle: Klucel (hydroxypropylcellulose) (HPC) 100 % of control | dose: 25.0 mg/kg/injection, schedule: Q01DX009 (ip), vehicle: Klucel (hydroxypropylcellulose) (HPC) 107 % of control | dose: 50.0 mg/kg/injection, schedule: Q01DX005 (ip), vehicle: Klucel (hydroxypropylcellulose) (HPC) 93 % of control | [7] 100 % of control | [8] 93 % of control | [9] 107 % of control

Cc1ccc(C)c(CCCCS(N)(=O)=O)c1
inactive: [1] 100 % of control | [10] 104 % of control | [11] 100 % of control

CCCCCCCCC(=O)Nc1ccc(O)cc1
inactive: dose: 100.0 mg/kg/injection, schedule: Q01DX009 (ip), vehicle: gum acacia 97 % of control | dose: 100.0 mg/kg/injection, schedule: Q04DX003 (ip), vehicle: gum acacia 104 % of control | dose: 200.0 mg/kg/injection, schedule: Q01DX009 (ip), vehicle: gum acacia 105 % of control | dose: 200.0 mg/kg/injection, schedule: Q04DX003 (ip), vehicle: gum acacia 88 % of control | dose: 400.0 mg/kg/injection, schedule: Q01DX009 (ip), vehicle: gum acacia 112 % of control | dose: 400.0 mg/kg/injection, schedule: Q04DX003 (ip), vehicle: gum acacia 102 % of control

O=P(CCl)(CCl)CCl
inactive: dose: 25.0 mg/kg/injection, schedule: Q01DX009 (ip), vehicle: saline with Tween-80 100 % of control | [2] 92 % of control | [3] 88 % of control and 92 % of control

CCOc1ccn(CC(=O)N2CCOCC2)c(=O)n1
inactive: dose: 100.0 mg/kg/injection, schedule: Q01DX009 (ip), vehicle: water 93 % of control | dose: 100.0 mg/kg/injection, schedule: Q04DX003 (ip), vehicle: water 105 % of control | dose: 200.0 mg/kg/injection, schedule: Q01DX009 (ip), vehicle: water 95 % of control | dose: 200.0 mg/kg/injection, schedule: Q04DX003 (ip), vehicle: water 100 % of control | dose: 400.0 mg/kg/injection, schedule: Q01DX009 (ip), vehicle: water 98 % of control | dose: 400.0 mg/kg/injection, schedule: Q04DX003 (ip), vehicle: water 95 % of control

O=C(O)c1ccc(C(=O)c2ccc([N+](=O)[O-])cc2)cc1
inactive: dose: 25.0 mg/kg/injection, schedule: Q01DX009 (ip), vehicle: carboxymethylcellulose (CMC) 102 % of control and 104 % of control | dose: 50.0 mg/kg/injection, schedule: Q01DX009 (ip), vehicle: carboxymethylcellulose (CMC) 95 % of control and 108 % of control | dose: 100.0 mg/kg/injection, schedule: Q01DX001 (ip), vehicle: carboxymethylcellulose (CMC) 92 % of control and 97 % of control | dose: 100.0 mg/kg/injection, schedule: Q01DX009 (ip), vehicle: carboxymethylcellulose (CMC) 95 % of control and 102 % of control | dose: 100.0 mg/kg/injection, schedule: Q04DX002 (ip), vehicle: carboxymethylcellulose (CMC) 101 % of control and 102 % of control | dose: 100.0 mg/kg/injection, schedule: Q04DX003 (ip), vehicle: carboxymethylcellulose (CMC) 105 % of control and 114 % of control | dose: 200.0 mg/kg/injection, schedule: Q01DX001 (ip), vehicle: carboxymethylcellulose (CMC) 98 % of control and 100 % of control | dose: 200.0 mg/kg/injection, schedule: Q04DX002 (ip), vehicle: carboxymethylcellulose (CMC) 93 % of control and 95 % of control | dose: 200.0 mg/kg/injection, schedule: Q04DX003 (ip), vehicle: carboxymethylcellulose (CMC) 97 % of control and 98 % of control | dose: 400.0 mg/kg/injection, schedule: Q01DX001 (ip), vehicle: carboxymethylcellulose (CMC) 93 % of control and 100 % of control | dose: 400.0 mg/kg/injection, schedule: Q01DX009 (ip), vehicle: carboxymethylcellulose (CMC) 104 % of control | dose: 400.0 mg/kg/injection, schedule: Q04DX002 (ip), vehicle: carboxymethylcellulose (CMC) 95 % of control and 98 % of control | dose: 400.0 mg/kg/injection, schedule: Q04DX003 (ip), vehicle: carboxymethylcellulose (CMC) 96 % of control and 88 % of control

Cn1nc2c(N)ncnc2c1C1OC(CO)C(O)C1O (configuration not stated)
inactive: dose: 100.0 mg/kg/injection, schedule: Q01DX005 (ip), vehicle: saline 116 % of control | dose: 200.0 mg/kg/injection, schedule: Q01DX005 (ip), vehicle: saline 106 % of control

CN1CNC(C=O)(CCc2ccc(Cl)cc2)C1 (configuration not stated)
inactive: [12] 87 % of control | dose: 400.0 mg/kg/injection, schedule: Q01DX001 (ip), vehicle: other 98 % of control

CCSc1nc2ccccc2s1
inactive: [13] 93 % of control | [12] 98 % of control

CC1(C)CCC(C)(C)c2c1ccc(O)c2Cc1c(O)ccc2c1C(C)(C)CCC2(C)C
inactive: [1] 96 % of control | dose: 200.0 mg/kg/injection, schedule: Q01DX001 (ip), vehicle: saline 87 % of control | [10] 96 % of control | [11] 94 % of control

CCCCCCOC(=O)C(C)(O)C(Cl)c1ccccc1 (configuration not stated)
inactive: dose: 100.0 mg/kg/injection, schedule: Q04DX002 (ip), vehicle: saline 100 % of control | dose: 200.0 mg/kg/injection, schedule: Q04DX002 (ip), vehicle: saline 111 % of control | dose: 400.0 mg/kg/injection, schedule: Q04DX002 (ip), vehicle: saline 91 % of control

O/N=C(/C(=N/O)c1ccccc1)c1ccccc1.O/N=C(/C(=N/O)c1ccccc1)c1ccccc1.[Ni]
inactive: [4] 97 % of control | [5] 97 % of control | [6] 93 % of control

C/C(=N\NC(=S)Nc1cc(Cl)ccc1Cl)c1ccc(O)cc1O
inactive: dose: 100.0 mg/kg/injection, schedule: Q01DX001 (ip), vehicle: Klucel (hydroxypropylcellulose) (HPC) 88 % of control | dose: 200.0 mg/kg/injection, schedule: Q01DX001 (ip), vehicle: Klucel (hydroxypropylcellulose) (HPC) 96 % of control | dose: 400.0 mg/kg/injection, schedule: Q01DX001 (ip), vehicle: Klucel (hydroxypropylcellulose) (HPC) 95 % of control

CCC/C=N/NC(=O)CCCCCCCCCCCCCCCCC
inactive: [14] 86 % of control | [15] 88 % of control | [16] 88 % of control

Cc1ccccc1NC(=O)Oc1ccc(C2CCCCC2)cc1
inactive: [7] 103 % of control | [8] 91 % of control | [9] 100 % of control

O=[N+]([O-])c1ccc(C2OC2c2ccccc2)cc1 (configuration not stated)
inactive: [14] 101 % of control | [1] 100 % of control | [15] 95 % of control | [10] 95 % of control | [16] 95 % of control | [11] 97 % of control

Cn1c(=O)cc(CCl)c2ccccc21
inactive: [13] 105 % of control
